Laboratory results as given in US5516936A, “Inhibitors of kynureninase” (University of Georgia Research Foundation, Inc., priority 1993, dated 1996).

Target: T1, Kynureninase (Pseudomonas fluorescens, UniProt P83788)
T1 construct: Bacterial kynureninase was prepared from cells of Pseudomonas fluorescens; endogenous in cells; partially purified by DEAE-cellulose and ammonium sulfate
T1 sequence (P83788 1-416): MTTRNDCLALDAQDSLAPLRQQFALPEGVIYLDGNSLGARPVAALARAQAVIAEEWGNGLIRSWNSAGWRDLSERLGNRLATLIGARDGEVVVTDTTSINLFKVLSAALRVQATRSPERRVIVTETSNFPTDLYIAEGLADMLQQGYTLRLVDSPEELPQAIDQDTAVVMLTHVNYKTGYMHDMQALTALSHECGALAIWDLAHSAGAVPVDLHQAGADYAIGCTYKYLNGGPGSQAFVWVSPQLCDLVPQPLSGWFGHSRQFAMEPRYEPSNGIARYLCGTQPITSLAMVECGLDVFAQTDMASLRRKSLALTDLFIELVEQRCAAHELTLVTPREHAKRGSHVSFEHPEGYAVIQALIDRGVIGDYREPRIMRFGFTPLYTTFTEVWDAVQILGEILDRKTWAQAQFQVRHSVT
Assay: Competitive inhibition of kynureninase by S-aryl cysteines and S-aryl cysteine sulfones
Format: biochemical
Details: Table 1; competitive inhibition vs L-kynurenine, pH 7.8, 25° C.; footnote 1: 0.07 is an upper limit; read-out: Ki
Procedure: Bacterial kynureninase was prepared from cells of Pseudomonas fluorescens (ATCC 11250, for example) essentially as described by .Hayaishi and Stanier (1952) J. Biol. Chem. 195:735-740. Cells were grown on a minimal medium containing 0.1% L-tryptophan as the sole carbon and nitrogen source.
From 100 1 of medium, grown for 18 h at 30° C. 230 g of wet cell paste was obtained. The cells were suspended in 1 of 0.01M potassiumphosphate, pH 7.0, and disrupted by 2 passages through a Manton-Gaulin homogenizer. After centrifugation of the cell extract for 1 h at 10000 g, the enzyme was partially purified by ion-exchange chromatography on DEAE-cellulose and ammonium sulfate precipitation.
Kynureninase activity was measured at 25° C. by following the decrease in absorbance at 360 nm (ε=-4500M^-1 cm^-1). A typical assay mixture contained 0.4 mM L-kynurenine in 0.04M potassium phosphate, pH 7.8, containing 40 μM pyridoxal-5'-phosphate, at 25° C. The reactions of S-aryl cysteines and S-aryl cysteine sulfones with kynureninase were performed using a spectrophotometric coupled assay with lactate dehydrogenase and NADH, by monitoring a decrease in absorbance due to pyruvate formation. A typical assay mixture contained 30 μl lactate dehydrogenase solution (2 mg/ml), 0.1 mM NADH, 40 μM pyridoxal-5'-phosphate, 0.04M tris.HCl buffer, pH 7.8, with varying concentrations of the compounds. The competitive inhibition of these compounds was measured by variation of L-kynurenine concentrations at several fixed values of the inhibitor. Km and Vmax values were calculated by fitting of initial rate data to the Michaelis-Menten equation with ENZFITTER (Elsevier) on a Z-286 personal computer. KI values were determined from the equation:
v=Vmax[S]/ (Km (1+[I]/Ki)+[S]

| Compound | Ki |
| --- | --- |
| Nc1ccccc1SC[C@H](N)C(=O)O [S-(2-aminophenyl)-L-cysteine] | 2.5 µM |
| Nc1ccccc1S(=O)(=O)C[C@H](N)C(=O)O [S-(2-aminophenyl)-L-cysteine sulfone] | ≤ 0.07 µM |
| N[C@@H](CS(=O)(=O)c1ccccc1)C(=O)O [S-phenyl-L-cysteine sulfone] | 3.9 µM |
| N[C@@H](CS(=O)(=O)c1ccc([N+](=O)[O-])cc1)C(=O)O | 12 µM |
| Nc1ccc(SC[C@H](N)C(=O)O)cc1 | 140 µM |
| N[C@@H](CSc1ccccc1)C(=O)O [S-phenyl-L-cysteine] | 700 µM |
| Nc1ccc(S(=O)(=O)C[C@H](N)C(=O)O)cc1 | 8.5 µM |
| N[C@@H](CS(=O)(=O)c1ccccc1[N+](=O)[O-])C(=O)O | 23 µM |

Same assay, conditions: Table 1; read-out: Ki

| Compound | Ki |
| --- | --- |
| Nc1ccccc1S(=O)(=O)C[C@H](N)C(=O)O [S-(2-aminophenyl)-L-cysteine sulfone] | ~0.07 µM |

Same assay, conditions: Table 1; read-out: Ki value

| Compound | Ki |
| --- | --- |
| Nc1ccccc1SC[C@H](N)C(=O)O [S-(2-aminophenyl)-L-cysteine] | 2.2 µM |
| N[C@@H](CS(=O)(=O)c1ccccc1)C(=O)O [S-phenyl-L-cysteine sulfone] | 3.9 µM |
| N[C@@H](CSc1ccccc1)C(=O)O [S-phenyl-L-cysteine] | 700 µM |

Same assay, conditions: bacterial kynureninase

| Compound | inhibition (in words) |
| --- | --- |
| Nc1ccccc1S(=O)(=O)C[C@H](N)C(=O)O [S-(2-aminophenyl)-L-cysteine sulfone] | considerably more potent inhibitor of kynureninase |
| N[C@@H](CSc1ccccc1)C(=O)O [S-phenyl-L-cysteine] | very weak inhibitor |

Same assay, conditions: relative to unsubstituted S-phenyl-L-cysteine

| Compound | fold decrease in Ki value |
| --- | --- |
| Nc1ccccc1SC[C@H](N)C(=O)O [S-(2-aminophenyl)-L-cysteine] | 318 fold |
| N[C@@H](CS(=O)(=O)c1ccccc1)C(=O)O [S-phenyl-L-cysteine sulfone] | 180 fold |

System: bacterial kynureninase
Assay: not given
Details: Kishore (1984); cited from earlier work

| Compound | inactivation of kynureninase (in words) | reaction with kynureninase (in words) |
| --- | --- | --- |
| N[C@@H](COS(=O)(=O)O)C(=O)O [L-serine O-sulfate] | inactivated kynureninase | react with kynureninase to give pyruvate and ammonia |
| N#CC[C@H](N)C(=O)O [β-cyano-L-alanine] | inactivated kynureninase | react with kynureninase to give pyruvate and ammonia |
| N[C@@H](CCl)C(=O)O [β-chloro-L-alanine] | inactivated kynureninase | react with kynureninase to give pyruvate and ammonia |
| CC(=O)OC[C@H](N)C(=O)O [o-acetyl-L-serine] | inactivated kynureninase | react with kynureninase to give pyruvate and ammonia |

System: kynureninase of P. fluorescens
Assay: not given
Details: Tanizawa and Soda (1979); cited from earlier work

| Compound | substrate of kynureninase (in words) | Km | Vmax / reactivity relative to L-kynurenine |
| --- | --- | --- | --- |
| Nc1ccc(O)cc1C(=O)C[C@H](N)C(=O)O [5-hydroxy-L-kynurenine] | substrates | – | – |
| N[C@@H](CSC(=O)c1ccccc1)C(=O)O [S-benzoyl-L-cystsine] | not substrates | – | – |
| Nc1c(O)cccc1C(=O)C[C@H](N)C(=O)O [3-hydroxy-L-kynurenine, α,2-diamino-3-hydroxy-γ-oxobenzenebutanoic acid] | substrates | 200 µM | – |
| NC(=O)C[C@H](N)C(=O)O [L-asparagine] | not substrates | – | – |
| Nc1cc(F)ccc1C(=O)C[C@H](N)C(=O)O [4-fluoro-L-kynurenine] | substrates | – | – |
| Nc1ccccc1C(=O)C[C@H](N)C(=O)O [L-kynurenine, α,2-diamino-γ-oxobenzenebutanoic acid] | – | 35 µM | – |
| N[C@@H](CC(=O)c1ccccc1NC=O)C(=O)O [N'-formyl-L-kynurenine] | substrates | – | – |
| Cc1ccc(N)c(C(=O)C[C@H](N)C(=O)O)c1 [5-methyl-L-kynurenine] | substrates | – | – |
| Nc1ccccc1C(O)C[C@H](N)C(=O)O (stereo partly drawn) [dihydrokynurenine, α,2-diamino-γ-hydroxybenzenebutanoic acid] | substrate | 67 µM | about 65% |
| Nc1ccccc1C(=O)C[C@@H](N)C(=O)O [D-kynurenine] | not substrates | – | – |
| Nc1ccc(F)cc1C(=O)C[C@H](N)C(=O)O [5-fluoro-L-kynurenine] | substrates | – | – |
| N[C@@H](CC(=O)c1ccccc1)C(=O)O [β-benzoyl-L-alanine] | substrates | – | – |

Same assay, conditions: bacterial kynureninase; cited from earlier work

| Compound | Km |
| --- | --- |
| N[C@@H](CC(=O)c1ccccc1NC=O)C(=O)O [N'-formyl-L-kynurenine] | 2200 µM |
| N[C@@H](CC(=O)c1ccccc1)C(=O)O [β-benzoyl-L-alanine] | 160 µM |

Target: T2, rat liver kynureninase (Rattus norvegicus, UniProt P70712)
T2 construct: host or cells: rat liver
T2 sequence (P70712 1-464): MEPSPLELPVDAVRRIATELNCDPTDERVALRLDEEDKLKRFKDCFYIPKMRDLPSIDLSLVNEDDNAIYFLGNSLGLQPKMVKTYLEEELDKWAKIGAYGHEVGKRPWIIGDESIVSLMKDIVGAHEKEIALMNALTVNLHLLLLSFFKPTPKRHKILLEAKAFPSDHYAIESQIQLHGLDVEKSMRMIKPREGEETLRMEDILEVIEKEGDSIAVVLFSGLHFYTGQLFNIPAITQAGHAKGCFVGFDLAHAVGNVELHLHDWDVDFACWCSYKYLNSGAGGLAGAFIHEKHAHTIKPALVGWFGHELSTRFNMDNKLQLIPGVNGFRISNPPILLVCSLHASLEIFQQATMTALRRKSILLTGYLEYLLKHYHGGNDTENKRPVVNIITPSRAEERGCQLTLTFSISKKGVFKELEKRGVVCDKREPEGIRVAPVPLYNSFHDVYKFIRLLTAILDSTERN
Assay: not given
Details: Wiss and Fuchs (1950); cited from earlier work

| Compound | reaction with rat liver kynureninase to produce alanine (in words) |
| --- | --- |
| N[C@@H](CC(O)c1ccccc1)C(=O)O (stereo partly drawn) [γ-phenyl-L-homoserine] | reacted with rat liver kynureninase |
| Nc1c(O)cccc1C(=O)C[C@H](N)C(=O)O [3-hydroxy-L-kynurenine, α,2-diamino-3-hydroxy-γ-oxobenzenebutanoic acid] | reacted with rat liver kynureninase |
| Nc1ccccc1C(=O)C[C@H](N)C(=O)O [L-kynurenine, α,2-diamino-γ-oxobenzenebutanoic acid] | reacted with rat liver kynureninase |
| N[C@@H](CC(=O)c1ccccc1[N+](=O)[O-])C(=O)O [β-(o-nitrobenzoyl)-L-alanine] | did not |
| CC(O)C[C@H](N)C(=O)O (stereo partly drawn) [γ-methyl-L-homoserine] | reacted with rat liver kynureninase |
| CC(O)CC(N)C(=O)O (stereo not drawn) [α-amino-γ-hydroxypentanoic acid] | reacted with rat liver kynureninase |
| CC(=O)CC(N)C(=O)O (centres unmarked) [2-aminolevulinic acid] | reacted with rat liver kynureninase |
| N[C@@H](CC(=O)c1ccccc1)C(=O)O [β-benzoyl-L-alanine] | reacted with rat liver kynureninase |

System: rat renal C-S lyase
Assay: not given
Details: kidney slice methodology; cited from earlier work

| Compound | inhibition of C-S lyase (in words) |
| --- | --- |
| N[C@@H](CSc1c([N+](=O)[O-])cccc1[N+](=O)[O-])C(=O)O [S-(2,6-dinitrophenyl)-L-cysteine] | inhibit |
| CC(=O)N[C@@H](CSc1ccc([N+](=O)[O-])cc1Cl)C(=O)O [N-acetyl-S-(2-chloro-4-nitrophenyl)-L-cysteine] | inhibit |
| CC(=O)N[C@@H](CSc1ccc([N+](=O)[O-])c([N+](=O)[O-])c1)C(=O)O [N-acetyl-S-(3,4-dinitrophenyl)-L-cystsine] | inhibit |

System: bacterial kynureninase
Assay: not given
Details: Tanizawa and Soda (1979); cited from earlier work

| Compound | inhibition of bacterial kynureninase (in words) |
| --- | --- |
| O=Cc1ccccc1 [benzaldehyde] | inhibitors |
| O=Cc1ccccc1[N+](=O)[O-] [o-nitrobenzaldehyde] | inhibitors |
| CC(=O)c1ccccc1N [o-aminoacetophenone] | inhibitors |
| Nc1ccccc1C=O [o-aminobenzaldehyde] | strongly inhibited |

Same assay, conditions: non-competitive inhibition; cited from earlier work

| Compound | Ki |
| --- | --- |
| Nc1ccccc1C=O [o-aminobenzaldehyde] | 6.5 µM |

System: bacterial kynureninase
Assay: not given
Details: Hayaishi (1955); cited from earlier work

| Compound | substrate of bacterial kynureninase (in words) |
| --- | --- |
| Nc1ccc(O)cc1C(=O)C[C@H](N)C(=O)O [5-hydroxy-L-kynurenine] | substrates |
| O=C(O)CCC(=O)c1ccccc1 [β-benzoylpropanoic acid] | do not react with bacterial kynureninase |
| N[C@@H](CC(=O)c1cccc(O)c1)C(=O)O [β-(m-hydroxybenzoyl)-L-alanine] | do not react with bacterial kynureninase |
| Nc1c(O)cccc1C(=O)C[C@H](N)C(=O)O [3-hydroxy-L-kynurenine, α,2-diamino-3-hydroxy-γ-oxobenzenebutanoic acid] | substrates |
| COc1cccc(C(=O)C[C@H](N)C(=O)O)c1N [3-methoxy-L-kynurenine] | do not react with bacterial kynureninase |
| N[C@@H](CC(=O)c1ccccc1[N+](=O)[O-])C(=O)O [β-(o-nitrobenzoyl)-L-alanine] | do not react with bacterial kynureninase |
| N[C@@H](CC(=O)c1ccccc1NC=O)C(=O)O [N'-formyl-L-kynurenine] | not a substrate |
| Nc1ccccc1C(=O)CCC(=O)O [β-(o-aminobenzoyl)propanoic acid] | do not react with bacterial kynureninase |
| N[C@@H](CC(=O)c1ccccc1O)C(=O)O [β-(o-hydroxybenzoyl)-L-alanine] | substrates |
| Nc1ccc(C(=O)C[C@H](N)C(=O)O)cc1 [β-(p-aminobenzoyl)-L-alanine] | do not react with bacterial kynureninase |
| N[C@@H](CC(=O)c1ccccc1)C(=O)O [β-benzoyl-L-alanine] | substrates |
